“Also recorded” adds a separate entry of the source.
Tested on: adjuvant-induced arthritis in rats
Test: Therapeutic effect on adjuvant-induced arthritis in rats
Type: in vivo, Wistar male rats
Procedure: Wistar male rats, weighing 160-180 g, were raised in the SPF animal room of Shanghai University of Traditional Chinese Medicine, and employed for experiment following at least one week of culture, where the culture was performed at a temperature of 22+1° C. and a humidity of 55±5% under a 12-h light-dark cycle. The feed and water were sterilized and then freely taken by rats. All experiments were carried out in strict accordance with the relevant regulations for experimental animals.
Bacille Calmette-Guerin (BCG) H37Ra was purchased from Difco Co., Ltd. (US); and the YSL-7A Plethysmometer (paw volume) Meter was produced by the equipment station of Shandong Academy of Medical Sciences.
The establishment of the adjuvant-induced arthritis rat model and the administration therefor were described performed as follows. Liquid paraffin was sterilized at high temperature and pressure, added with a 10 mg/mL aqueous BCG solution and emulsified under repeated suction to produce a Freund's complete adjuvant (CFA) emulsion. In the experiment, individual rats were sensitized by intradermal injection of 0.1 mL of the CFA emulsion at the left hind paw to induce adjuvant arthritis in the limbs.
The grouping and administration were performed as follows. The male wistar rats were randomly divided into four groups according to weight each for 10 rats.
The rats in the blank control group were treated with 0.3% CMC solution daily by intragastric administration.
The rats in the arthritis solvent control group were similarly treated with 0.3% CMC solution daily by intragastric administration.
Rats from the two administration groups were respectively treated with 5 mg/kg and 20 mg/kg of compound 59 by oral administration once a day.
In addition to the blank control group, the rats in the other three groups were sensitized individually by […] injection of 0.1 mL of an adjuvant containing 10 mg/mL inactivated bacillus strain at the left hind foot pad. From the 10th day after the occurrence of arthritis, the rats in the administration groups were orally administered for therapeutic pharmacodynamic observation.
The therapeutic effect was monitored as follows. The rats were observed every day for the development of arthritis symptoms and weighed once every 2-3 days. A 5-level standard scoring system based on the clinical disease index was employed to evaluate the inflammation, where “0”: no redness and swelling; “1”: redness and swelling at the small toe joints; “2”: swelling at the toe joints and toes; “3”: swelling at feet below the ankle joint; and “4”: swelling at the entire feet including ankle joint. The two hind feet were measured for the volume to evaluate the swelling degree.

Question: For `Cc1cc(OCc2ccccc2Br)c(C)c2c1CC[C@H]1C(CN(C)C)C(=O)O[C@@H]21` (mixture of isomers) [Compound 59, (3R/S,3aS,9bR)-8-(2-bromobenzyloxy)-3-dimethylaminomethyl-6,9-dimethyl-3a, 4,5,9b-tetrahydronaphtho [1,2-b]furan-2(3H)-one], which “effect on weight of rats with adjuvant-induced arthritis” value (5 mg/kg and 20 mg/kg, oral, once a day, from the 10th day after occurrence of arthritis, FIG. 1) is on record?
Answer: showed similar effect on the weight; also recorded: no significant effect on the weight loss

Question: And the “disease index of arthritis (clinical disease index, 0-4 score)” value (5 mg/kg and 20 mg/kg, oral, once a day, compared to the model group, P<0.05, FIG. 2)?
Answer: significantly lowered

Question: And the “secondary foot lesions (foot swelling, opposite side)” value (5 mg/kg and 20 mg/kg, oral, once a day, compared to the model group, P<0.05, FIG. 3)?
Answer: significantly inhibited; also recorded: alleviating

Question: And the “primary foot lesions (foot swelling, sensitization side)” value (5 mg/kg and 20 mg/kg, oral, once a day, compared to the model group, P<0.05, FIG. 4)?
Answer: significantly inhibited; also recorded: alleviating

Question: And the “overall therapeutic effect on adjuvant-induced arthritis in rats” value (daily oral administration)?
Answer: remarkable therapeutic effect

From patent US11034663B2, “Tetrahydronaphtho[1,2-b]furan-2(3H)-one derivatives and preparation and uses thereof” (SHANGHAI QINGDONG BIOTECHNOLOGY CO., LTD., priority 2017, dated 2021)
